Laboratory results from the NIST ThermoML archive (doi:10.1016/j.jct.2005.05.008).

Assays:
[1] = 298.15 K; 101.33 kPa; Liquid
[2] = an = ratio of the nth substance listed, in mol/kg; conditions: 101 kPa, Liquid, Vibrating tube method

CN(C)C=O [dimethylformamide]
Conditions | mass density [kg/m3]
[1] | 943.792

CC(=O)N(C)C [N,N-dimethylethanamide]
Conditions | mass density [kg/m3]
[1] | 936.357

CN(C)C=O [dimethylformamide] + CC[N+](CC)(CC)CC.[O-][Cl+3]([O-])([O-])[O-]
[2], a2 = 0
Conditions | mass density [kg/m3]
283.15 K | 958.067
293.15 K | 948.553
298.15 K | 943.79
303.15 K | 939.014
313.15 K | 929.43
323.15 K | 919.797
333.15 K | 910.117

CN(C)C=O [dimethylformamide] + CCCC[N+](CCCC)(CCCC)CCCC.[O-][Cl+3]([O-])([O-])[O-]
[2], a2 = 0
Conditions | mass density [kg/m3]
283.15 K | 958.067
293.15 K | 948.553
298.15 K | 943.79
303.15 K | 939.014
313.15 K | 929.43
323.15 K | 919.797
333.15 K | 910.117

CCCC[N+](CCCC)(CCCC)CCCC.[O-][Cl+3]([O-])([O-])[O-] [tetrabutylammonium perchlorate] + CN(C)C=O
mass density [kg/m3], [2]
Conditions | a1 = 0.02852 | a1 = 0.05393 | a1 = 0.07866 | a1 = 0.1047 | a1 = 0.1431 | a1 = 0.1824 | a1 = 0.222 | a1 = 0.2619
283.15 K | 959.148 | 960.097 | 961.015 | 961.969 | 963.376 | 964.794 | 966.232 | 967.661
293.15 K | 949.672 | 950.653 | 951.604 | 952.588 | 954.042 | 955.511 | 956.99 | 958.466
298.15 K | 944.93 | 945.929 | 946.892 | 947.89 | 949.37 | 950.86 | 952.366 | 953.862
303.15 K | 940.173 | 941.191 | 942.17 | 943.187 | 944.69 | 946.204 | 947.732 | 949.254
313.15 K | 930.632 | 931.686 | 932.697 | 933.756 | 935.303 | 936.87 | 938.448 | 940.016
323.15 K | 921.05 | 922.138 | 923.191 | 924.277 | 925.877 | 927.496 | 929.126 | 930.747
333.15 K | 911.409 | 912.535 | 913.625 | 914.75 | 916.4 | 918.08 | 919.765 | 921.436

CC[N+](CC)(CC)CC.[O-][Cl+3]([O-])([O-])[O-] [tetraethylammonium perchlorate] + CN(C)C=O
mass density [kg/m3], [2]
Conditions | a1 = 0.02269 | a1 = 0.04218 | a1 = 0.06274 | a1 = 0.08215 | a1 = 0.1147 | a1 = 0.1455 | a1 = 0.1761 | a1 = 0.2062
283.15 K | 959.351 | 960.443 | 961.586 | 962.663 | 964.449 | 966.152 | 967.825 | 969.465
293.15 K | 949.863 | 950.975 | 952.142 | 953.234 | 955.047 | 956.775 | 958.473 | 960.139
298.15 K | 945.114 | 946.237 | 947.409 | 948.513 | 950.338 | 952.082 | 953.791 | 955.471
303.15 K | 940.349 | 941.482 | 942.667 | 943.781 | 945.623 | 947.378 | 949.101 | 950.793
313.15 K | 930.795 | 931.951 | 933.155 | 934.288 | 936.165 | 937.945 | 939.7 | 941.419
323.15 K | 921.19 | 922.369 | 923.599 | 924.748 | 926.661 | 928.473 | 930.257 | 932.007
333.15 K | 911.533 | 912.731 | 913.987 | 915.156 | 917.106 | 918.957 | 920.766 | 922.55

CN(C)C=O [dimethylformamide] + CCC[N+](CCC)(CCC)CCC.[O-][Cl+3]([O-])([O-])[O-]
[2], a2 = 0
Conditions | mass density [kg/m3]
283.15 K | 958.067
293.15 K | 948.553
298.15 K | 943.79
303.15 K | 939.014
313.15 K | 929.43
323.15 K | 919.797
333.15 K | 910.117

CN(C)C=O [dimethylformamide] + C[N+](C)(C)C.[O-][Cl+3]([O-])([O-])[O-]
[2], a2 = 0
Conditions | mass density [kg/m3]
283.15 K | 958.067
293.15 K | 948.553
298.15 K | 943.79
303.15 K | 939.014
313.15 K | 929.43
323.15 K | 919.797
333.15 K | 910.117
